# Source: patent US20090156657A1, “ANTI-INFLAMMATORY COMPOSITION” (Ajinomoto Co., Inc., priority 2006, published 2009)
# What was measured:
# [1] = system: VCAM-1; assay: VCAM-1 protein expression on HAEC cell membrane (immunostaining); type: cell-based, human; conditions: 0.1-10 μM 24 h, 25 mM glucose 4 h, FIG. 4A
# Description: HAEC cells proliferated to confluence in a 96 well microplate were pre-incubated with 0.1-10 μM serotonin derivative for 24 hours, and stimulated with 25 mM glucose for 4 hours. The cell layer was washed with Hanks solution, and then anti-VCAM-1 monoclonal antibody (Becton Dickinson) was added and the cells were incubated at 37° C. for 1 hour. After washing, the cells were incubated with secondary antibody (peroxidase-labeled anti-mouse IgG goat F(ab′)2 fragment; Cappel) for 1 hour. A color development substrate (o-phenylenediamine dihydrochloride) was added and, about 30 minutes later (room temperature), the absorbance (492 nm) of each well was quantified with a microplate reader. The MCP-1 concentration of the medium was quantified with Human MCP-1 Immunoassay Kit (BioSource International).
# [2] = system: blood NOx; assay: IBD model mouse: blood NOx concentration; type: in vivo; conditions: IBD model mice, diet 3 weeks, vs Control group; FIG. 13
# Description: By the activation of leukocytes in an inflammatory response, a large amount of NO is produced by the cells, and the blood concentration of NOx, a metabolite, increases. It is known that blood NOx concentration becomes one index of inflammatory response in living organisms due to this mechanism (Yuka Ikenoue et al., International Immunopharmacology 5 (2005) 993-1006). The NOx concentration of the blood obtained in Example 10 was measured using an “Nitric Oxide Quantitation Kit (ACTIVE MOTIF)”.
# [3] = system: NF-κB (p65); assay: Activation of NF-κB (nuclear translocation of p65) in HAEC stimulated with high glucose; type: cell-based, human; conditions: pre-treatment 5 and 10 μM 24 h, 25 mM glucose 2 h, FIG. 1
# Description: In the present invention, the term “suppression of NF-κB activation” means suppression of the translocation of NF-κB into the nucleus. The suppression of the translocation of NF-κB into the nucleus can be confirmed by the method described in Example 1. To be specific, a test substance is added to a culture medium of human aortic endothelial cells, the cells are incubated for a predetermined time, the nucleus is extracted from the aforementioned cells stimulated with glucose, and activated NF-κB (p65) translocated into the nucleus is detected. Using the cells before glucose stimulation, wherein NF-κB is not activated, as a negative control and the cells stimulated with glucose and free of addition of a test substance as a positive control, when the detection level of the aforementioned p65 is closer to the negative control than to the positive control, NF-κB activation is evaluated to have been suppressed.
# Human aortic endothelial cells (HAEC) were purchased from Clonetics Corp, and the cells cultured for 3-4 passages (37° C., under 5% carbon dioxide gas atmosphere) were used for the experiment. […] Nucleus was extracted from the cells using Nuclear Extract Kit (Active Motif), and then the activated NF-κB (p65) translocated into the nucleus was detected by TransAM NF-κB p65 Kit (Active Motif).
# [4] = system: large intestine tissue of IBD model mice; assay: IBD model mouse: large intestine histopathology (PAS staining); type: in vivo; conditions: vs Control group, FIG. 14
# Excerpt: At the end of the test described in Example 10, the large intestine (caecum—anus) was cut into about 1 cm pieces from the center to the anus side to give 3 sections in total. One of them was fixed with 10% formalin solution and two were frozen in liquid nitrogen. The large intestine fixed with formalin was embedded in paraffin, and sliced to give transversely sectioned specimens. The specimens were stained by a PAS (Periodic acid Schiff) staining method, and histopathological images were observed. On the other hand, total RNA was extracted from the frozen large intestine tissue with ISOGEN (NIPPON GENE CO., LTD.) Total RNA (2 μg) was subjected to a reverse transcription reaction using a SYBR ExScript™ RT-PCR kit (TaKaRa) and, using this as a template, quantitative realtime PCR was performed using IL-1β, TNF-α and GAPDH. The primers used for the analysis were as follows.
# [5] = system: VCAM-1 mRNA; assay: VCAM-1 mRNA expression in HAEC by real-time PCR; type: cell-based, human; conditions: 10 μM 24 h, 25 mM glucose 3 h, GAPDH internal standard, FIG. 3A
# Description: (§1) HAEC cells pre-treated with 10 μM of CS or FS for 24 hours were stimulated with 25 mM glucose for 3 hours, and total RNA was extracted with Isogenkit (NIPPON GENE CO., LTD.). From 1 μg of RNA, cDNA was synthesized using 100 U/mL of reverse transcriptase (TAKARA BIO INC.) and 0.1 μM of oligo (dT)-adapter (TAKARA BIO INC.) (total volume of reaction mixture; 50 μL) (42° C., 40 minutes). Real-time PCR was performed using 7300 Real Time PCR system (Applied Biosystems Japan Ltd.) and the PCR product was detected by SYBER Green I.
# (§2) PCR reaction composition (RT-PCRkit, TAKARA BIO INC.): 12.5 μL Premix Ex Taq, 2.5 μL SYBER Green I, synthesis primer, ROX reference dye, cDNA (corresponding to 20 ng of total RNA), final reaction volume; 25 μL
# (§3) Primers having the following sequences were used.
# (§4) PCR was conducted under the following conditions.
# (§5) thermal denaturation: at 95° C. for 15 seconds, extension reaction: 40 cycles (3 seconds at 95° C., 31 seconds at 60° C.)
# (§6) Expression amounts of VCAM-1 and MCP-1 mRNA were calculated using GAPDH as the internal standard.
# [6] = system: MCP-1 mRNA; assay: MCP-1 mRNA expression in HAEC by real-time PCR; type: cell-based, human; conditions: 10 μM 24 h, 25 mM glucose 3 h, GAPDH internal standard, FIG. 3B
# Description: as §1, §2, §3, §4, §5, §6
# [7] = system: U-937 cells / HAEC; assay: Migration capability of monocyte (U-937), Transwell system with HAEC; type: cell-based, human; conditions: HAEC pre-incubated 5 or 10 μM 24 h, 25 mM glucose 4 h; FIG. 7
# Description: The migration capability of monocyte was measured using the Transwell system (pore size 3 μm; BD Biosciences). HAEC cultured on a transwell placed in a 24 well microplate was pre-incubated with 5 or 10 μM serotonin derivative for 24 hours, and stimulated with 25 mM glucose for 4 hours. 200 μL of U-937 cell suspension (10^6 cells/mL) was added to the transwell and the cells were incubated as-is at 37° C. for 2 hours. The number of cells migrated to the lower chamber of the transwell through the membrane was counted under a microscope (20 fields). The experiment was repeated three times, and the results are shown as an average value thereof. An experiment using fluorescence-labeled U-937 cells was also performed. BCECF-AM-labeled U-937 cells were plated in the upper chamber of the transwell and incubated at 37° C. for 2 hours. The cells migrated to the lower chamber through the membrane were collected in 1 mL of PBS buffer and treated with 1% Triton X for 2 hours. The fluorescence derived from the migrated cells was quantified (Ex. 503 nm, Em. 525 nm) using a fluorescence plate reader (Bio-Rad, Fluoromark).
smiles,measurement,setting,value
"COc1cc(/C=C/C(=O)NCCc2c[nH]c3ccc(O)cc23)ccc1O [FS, N-feruloyl serotonin]",VCAM-1 expression on the cell membrane,[1],suppressed the induction of their expressions in a dose-dependent manner
same,blood NOx concentration,[2],tendency toward decrease
same,nuclear translocation of p65 (activation of NF-κB),[3],significantly suppressed
same,number of normal goblet cells,[4],increased number of normal goblet cells
same,thickening of the large intestine mucosal epithelium,[4],suppressed thickening
same,expression amount of VCAM-1 mRNA,[5],significantly suppressed the increase
same,expression amount of MCP-1 mRNA,[6],significantly suppressed the increase
same,number of U-937 cells migrated into subendothelium space (cell count),[7],significantly decreased
